According to US20130203730A1, “BENZOTHIAZOLES AS GHRELIN RECEPTOR MODULATORS” (AstraZeneca AB, priority 2007, published 2013):

Assays:
[1] = molecular target: T1, human GHS receptor (Homo sapiens, UniProt Q92847); assay: h bind IC50 (binding assay, hBindingIC50)
T1 construct: expressed in transfected cells

[2] = molecular target: T1, human GHS receptor; assay: Ghrelin IP1 agonist assay (IP1 HTRF) in HEK293s cells expressing human GHS receptor; format: cell-based
Protocol: In HEK293s cells stably expressing human GHS receptor (In-house), agonist activity was assessed by measuring intracellular myo-Inositol 1 phosphate (IP1) using the IP1 HTRF assay kit (Cisbio International).
Cells were harvested using accutase (Sigma), spun down at 1000 rpm for 5 minutes and resuspended in stimulation buffer (as above) containing 0.02% fatty acid free BSA at a density of 1.43E6 cells/ml.

T1 sequence (Q92847 whole entry): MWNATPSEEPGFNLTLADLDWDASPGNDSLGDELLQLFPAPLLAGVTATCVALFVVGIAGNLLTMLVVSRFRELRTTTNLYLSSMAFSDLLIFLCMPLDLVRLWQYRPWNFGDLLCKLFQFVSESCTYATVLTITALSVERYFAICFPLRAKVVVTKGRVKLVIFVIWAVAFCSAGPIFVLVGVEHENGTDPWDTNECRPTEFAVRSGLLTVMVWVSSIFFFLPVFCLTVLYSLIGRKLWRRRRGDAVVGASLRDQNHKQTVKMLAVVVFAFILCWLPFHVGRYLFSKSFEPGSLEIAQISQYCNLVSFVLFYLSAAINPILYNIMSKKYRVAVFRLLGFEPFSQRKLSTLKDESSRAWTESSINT

IC50 [1]: 2220 nM
Emax ([2]; HEK293S, 2 h, agonist effect as % maximal effect of GHRP-6 (5 μM), read-out: h IP1 ag %): 18.2%
EC50 ([2]; HEK293s cells stably expressing human GHS receptor, read-out: h IP1 ag EC50): 3680 nM
SMILES: CCS(=O)(=O)c1ccccc1C(=O)NC(=O)Nc1nc2ccc(S(C)(=O)=O)cc2s1 [Example 135, 2-Ethylsulfonyl-N-[(6-methylsulfonylbenzothiazol-2-yl)carbamoyl]benzamide]
